Experimental data taken from patent US20250163104A1, “MACROCYCLIC IMMUNOMODULATORS” (priority 2021, published 2025).
Where a SMILES comes first, the peptide text is derived from it. Bridges are numbered along the chain shown (N, C = ends). [ ]: non-standard residue; d: D form. The star is where a group is joined. ξ: configuration not given here. Ala(4-isoquinolinyl) = N[C@@H](Cc1cncc2ccccc12)C(=O)O; Phe(3-CF3) = N[C@@H](Cc1cccc(C(F)(F)F)c1)C(=O)O; Ala(morpholin-4-yl) = N[C@@H](CN1CCOCC1)C(=O)O; Phe(4-COOH) = N[C@@H](Cc1ccc(C(=O)O)cc1)C(=O)O; Bip = N[C@@H](Cc1ccc(-c2ccccc2)cc1)C(=O)O; Phe(3-Me) = Cc1cccc(C[C@H](N)C(=O)O)c1; Val(3-OH) = CC(C)(O)[C@H](N)C(=O)O; 4Pal = N[C@@H](Cc1ccncc1)C(=O)O; Cha = N[C@@H](CC1CCCCC1)C(=O)O; Cit = NC(=O)NCCC[C@H](N)C(=O)O; Ile(3ξ) = CCC(C)[C@H](N)C(=O)O; Thr(3ξ) = CC(O)[C@H](N)C(=O)O; Carboxymethyl = O=C(O)C*; Nle = CCCC[C@H](N)C(=O)O; Orn = NCCC[C@H](N)C(=O)O; Pra = C#CC[C@H](N)C(=O)O; Dab = NCC[C@H](N)C(=O)O; Dap = NC[C@H](N)C(=O)O; X1 = C1CCC(*)CC1

Target: T1, human PD-1 / PD-L1-Ig binding on Jurkat cell line over-expressing human PD-1 (Jurkat-PD-1) (Homo sapiens, UniProt Q15116)
T1 construct: expressed in transfected cells; host or cells: Jurkat
Experiment: Jurkat-PD-1 Cell Binding High-Content Screening Assay (CBA)
Assay type: cell-based
Conditions: Jurkat-PD-1 cells, PE-labeled PD-L1-Ig 20 nM final; read-out: Jurkat HPD1_PDL1 IC50
Summary of the method: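 Cell-bound PE-labeled PD-L1-Ig (20 nM final, 1 h) measured by high-content imaging after fixation and Hoechst 33342 counterstain. Compound was applied first for 2 h at 37° C. to Jurkat cells over-expressing human PD-1 in DMEM with 10% FCS.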

T1 sequence (Q15116 25-288): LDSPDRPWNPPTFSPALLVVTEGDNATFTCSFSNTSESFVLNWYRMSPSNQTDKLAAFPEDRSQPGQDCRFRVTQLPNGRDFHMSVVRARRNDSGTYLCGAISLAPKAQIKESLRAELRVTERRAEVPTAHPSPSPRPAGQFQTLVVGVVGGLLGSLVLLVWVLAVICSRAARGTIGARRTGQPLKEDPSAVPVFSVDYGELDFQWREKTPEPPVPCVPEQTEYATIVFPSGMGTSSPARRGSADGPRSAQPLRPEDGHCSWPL

IC50 [nM]	SMILES
33.1	CCC(C)[C@@H]1NC(=O)[C@H](Cc2ccc(-c3ccccc3)cc2)NC(=O)[C@H](Cc2ccc(OCC(=O)O)cc2)NC(=O)[C@H](Cc2cccc(C)c2)NC(=O)[C@H](CC(=O)O)NC(=O)[C@H](Cc2ccc(C(=O)O)cc2)NC(=O)[C@H](Cc2ccncc2)NC(=O)CSC[C@@H](C(=O)N[C@@H](CC(N)=O)C(N)=O)NC(=O)[C@H]([C@@H](C)O)NC(=O)[C@H](C(C)C)NC(=O)[C@H](CC2CCCCC2)NC(=O)[C@H](CCN)NC(=O)[C@@H](CC(C)C)NC(=O)[C@H](CCCN)NC1=O (stereo partly drawn) [Compound 2315] ({CH2CO}-[4Pal][Phe(4-COOH)]D[Phe(3-Me)]Y(Carboxymethyl)[Bip][Ile(3ξ)][Orn][dL][Dab][Cha]VTCN-NH2; thioether N-14)
11.9	CCCC[C@H]1NC(=O)[C@H](CCCN)NC(=O)[C@H](CCC(=O)O)NC(=O)[C@H](Cc2ccc(-c3ccccc3)cc2)NC(=O)[C@H](C(C)C)NC(=O)[C@H](Cc2c[nH]c3ccccc23)NC(=O)[C@H](CC(=O)O)NC(=O)[C@H](Cc2ccc(OCC(=O)O)cc2)NC(=O)[C@H](CN)NC(=O)CSC[C@@H](C(=O)N[C@@H](C)C(N)=O)NC(=O)[C@H]([C@@H](C)O)NC(=O)[C@H](C(C)C)NC(=O)[C@H](CC2CCCCC2)NC(=O)[C@H](CCN)NC1=O [Compound 1454]
18.1	CC(C)C[C@H]1NC(=O)[C@H](CCCN)NC(=O)[C@H](C(C)C)NC(=O)[C@H](Cc2ccc(-c3ccccc3)cc2)NC(=O)[C@H](C(C)C)NC(=O)[C@H](Cc2cccc(Cl)c2)NC(=O)[C@H](CC(=O)O)NC(=O)[C@H](Cc2ccc(OCC(=O)O)cc2)NC(=O)[C@H](Cc2ccc(OCC(=O)O)cc2)NC(=O)CSC[C@@H](C(=O)N[C@@H](C)C(N)=O)NC(=O)[C@H]([C@@H](C)O)NC(=O)[C@H](C(C)C)NC(=O)[C@H](CC2CCCCC2)NC(=O)[C@H](CCN)NC1=O [Compound 1573]
14	Cc1cccc(C[C@@H]2NC(=O)[C@H](CC(=O)O)NC(=O)[C@H](Cc3ccc(OCC(=O)O)cc3)NC(=O)[C@H](CCCNC(=N)N)NC(=O)CSC[C@@H](C(=O)N[C@@H](CO)C(N)=O)NC(=O)[C@H](CO)NC(=O)[C@H](C(C)O)NC(=O)[C@H](CC3CCCCC3)NC(=O)[C@H](CCN)NC(=O)[C@@H](CC(C)C)NC(=O)[C@H](CCCN)NC(=O)[C@H](CCCNC(N)=O)NC(=O)[C@H](Cc3ccc(-c4ccccc4)cc3)NC(=O)[C@H](C(C)C)NC2=O)c1 (stereo partly drawn) [Compound 2598] ({CH2CO}-RY(Carboxymethyl)D[Phe(3-Me)]V[Bip][Cit][Orn][dL][Dab][Cha][Thr(3ξ)]SCS-NH2; thioether N-14)
2	CC(C)C[C@H]1NC(=O)[C@H](CCCN)NC(=O)[C@H](Cc2ccc(C(=O)O)cc2)NC(=O)[C@H](Cc2ccc(-c3ccccc3)cc2)NC(=O)[C@H](Cc2ccc(OC3CCCCC3)cc2)NC(=O)[C@H](Cc2cccc(C(F)(F)F)c2)NC(=O)[C@H](CC(=O)O)NC(=O)[C@H](Cc2ccc(C(=O)O)cc2)NC(=O)[C@H](CN2CCOCC2)NC(=O)CSC[C@@H](C(=O)N[C@@H](CCN)C(N)=O)NC(=O)[C@H](CCC(=O)O)NC(=O)[C@H](C(C)C)NC(=O)[C@H](CC2CCCCC2)NC(=O)[C@H](CCN)NC1=O [Example 2729] ({CH2CO}-[Ala(morpholin-4-yl)][Phe(4-COOH)]D[Phe(3-CF3)]Y(X1)[Bip][Phe(4-COOH)][Orn][dL][Dab][Cha]VEC[Dab]-NH2; thioether N-14)
0.7	CCCC[C@@H]1NC(=O)CSC[C@@H](C(=O)N[C@@H](CCN)C(N)=O)NC(=O)[C@H](CO)NC(=O)[C@H](C(C)(C)O)NC(=O)[C@H](CC2CCCCC2)NC(=O)[C@H](CCN)NC(=O)[C@@H](CC(C)C)NC(=O)[C@H](CCCN)NC(=O)[C@H](Cc2ccc(C(=O)O)cc2)NC(=O)[C@H](Cc2ccc(-c3ccccc3)cc2)NC(=O)[C@H](Cc2ccc(C(=O)O)cc2)NC(=O)[C@H](Cc2cccc(C(F)(F)F)c2)NC(=O)[C@H](CC(=O)O)NC(=O)[C@H](Cc2ccc(OCC(=O)O)cc2)NC1=O [Example 2713] ({CH2CO}-[Nle]Y(Carboxymethyl)D[Phe(3-CF3)][Phe(4-COOH)][Bip][Phe(4-COOH)][Orn][dL][Dab][Cha][Val(3-OH)]SC[Dab]-NH2; thioether N-14)
8.9	CC(C)C[C@H]1NC(=O)[C@H](CCCN)NC(=O)[C@H](CCCNC(N)=O)NC(=O)[C@H](Cc2ccc(-c3ccccc3)cc2)NC(=O)[C@H](C(C)C)NC(=O)[C@H](Cc2c[nH]c3ccccc23)NC(=O)[C@H](CC(=O)O)NC(=O)[C@H](Cc2ccc3ncccc3c2)NC(=O)[C@H](CN)NC(=O)CSC[C@@H](C(=O)N[C@@H](C)C(N)=O)NC(=O)[C@H]([C@@H](C)O)NC(=O)[C@H](C(C)C)NC(=O)[C@H](CC2CCCCC2)NC(=O)[C@H](CCN)NC1=O [Compound 2116]
13.6	CC(C)C[C@H]1NC(=O)[C@H](CCCN)NC(=O)[C@H](C(C)C)NC(=O)[C@H](Cc2ccc(-c3ccccc3)cc2)NC(=O)[C@H](C(C)C)NC(=O)[C@H](Cc2c[nH]c3ccccc23)NC(=O)[C@H](CC(=O)O)NC(=O)[C@H](Cc2ccc(C(=O)O)cc2)NC(=O)[C@H](Cc2ccc(OCC(=O)O)cc2)NC(=O)CSC[C@@H](C(=O)N[C@@H](C)C(N)=O)NC(=O)[C@H]([C@@H](C)O)NC(=O)[C@H](C(C)C)NC(=O)[C@H](Cc2cccc(F)c2)NC(=O)[C@H](CCN)NC1=O [Compound 1673]
62.6	CC(C)C[C@H]1NC(=O)[C@H](CCCN)NC(=O)[C@H](CCCNC(N)=O)NC(=O)[C@H](Cc2ccc(-c3ccccc3)cc2)NC(=O)[C@H](C(C)C)NC(=O)[C@H](Cc2c[nH]c3ccccc23)NC(=O)[C@H](CC(=O)O)NC(=O)[C@H](Cc2cncc3ccccc23)NC(=O)[C@H](CN)NC(=O)CSC[C@@H](C(=O)N[C@@H](C)C(N)=O)NC(=O)[C@H]([C@@H](C)O)NC(=O)[C@H](C(C)C)NC(=O)[C@H](CC2CCCCC2)NC(=O)[C@H](CCN)NC1=O [Compound 2118] ({CH2CO}-[Dap][Ala(4-isoquinolinyl)]DWV[Bip][Cit][Orn][dL][Dab][Cha]VTCA-NH2; thioether N-14)
30	CC(C)C[C@H]1NC(=O)[C@H](CCCN)NC(=O)[C@H](CCC(=O)O)NC(=O)[C@H](Cc2ccc(-c3ccccc3)cc2)NC(=O)[C@H](C(C)C)NC(=O)[C@H](Cc2c[nH]c3ccccc23)NC(=O)[C@H](CC(=O)O)NC(=O)[C@H](Cc2ccc(OCC(=O)O)cc2)NC(=O)[C@H](CN)NC(=O)CSC[C@@H](C(=O)N[C@@H](C)C(N)=O)NC(=O)[C@H]([C@@H](C)O)NC(=O)[C@H](C(C)C)NC(=O)[C@H](CC2CCCCC2)NC(=O)[C@H](CO)NC1=O [Compound 1516] ({CH2CO}-[Dap]Y(Carboxymethyl)DWV[Bip]E[Orn][dL]S[Cha]VTCA-NH2; thioether N-14)
20.3	CC(C)C[C@@H]1NC(=O)[C@H](CCN)NC(=O)[C@@H](CC(C)C)NC(=O)[C@H](CCCN)NC(=O)[C@H](CCCNC(N)=O)NC(=O)[C@H](Cc2ccc(-c3ccccc3)cc2)NC(=O)[C@H](C(C)C)NC(=O)[C@H](Cc2c[nH]c3ccccc23)NC(=O)[C@H](CC(=O)O)NC(=O)[C@H](Cc2ccc(O)cc2)NC(=O)[C@H](CC(N)=O)NC(=O)CSC[C@@H](C(=O)N[C@@H](C)C(N)=O)NC(=O)[C@H]([C@@H](C)O)NC(=O)[C@H](C(C)C)NC1=O [Compound 1017] ({CH2CO}-NYDWV[Bip][Cit][Orn][dL][Dab]LVTCA-NH2; thioether N-14)
576	C#CC[C@H](NC(=O)[C@H](CCN)NC(=O)[C@@H]1CSCC(=O)N[C@@H](Cc2ccncc2)C(=O)N[C@@H](Cc2ccc(OCC(=O)O)cc2)C(=O)N[C@@H](CC(=O)O)C(=O)N[C@@H](Cc2cccc(C)c2)C(=O)N[C@@H](Cc2ccc(OCC(=O)O)cc2)C(=O)N[C@@H](Cc2ccc(-c3ccccc3)cc2)C(=O)N[C@@H](Cc2ccc(OCC(=O)O)cc2)C(=O)N[C@@H](CCCN)C(=O)N[C@H](CC(C)C)C(=O)N[C@@H](CCN)C(=O)N[C@@H](CC2CCCCC2)C(=O)N[C@@H](C(C)(C)O)C(=O)N[C@@H](CO)C(=O)N1)C(=O)O [Compound 2317] ({CH2CO}-[4Pal]Y(Carboxymethyl)D[Phe(3-Me)]Y(Carboxymethyl)[Bip]Y(Carboxymethyl)[Orn][dL][Dab][Cha][Val(3-OH)]SC[Dab][Pra]-OH; thioether N-14)
32.2	CC(C)C[C@@H]1NC(=O)[C@H](Cc2c[nH]c3ccccc23)NC(=O)[C@H](CC(=O)O)NC(=O)[C@H](Cc2ccc(O)cc2)NC(=O)[C@H](Cc2ccccc2)NC(=O)CSC[C@@H](C(=O)N[C@@H](C)C(N)=O)NC(=O)[C@H](CO)NC(=O)[C@H](C(C)C)NC(=O)[C@H](CC(C)C)NC(=O)[C@H](CC(N)=O)NC(=O)[C@@H](CC(C)C)NC(=O)[C@H](CN)NC(=O)[C@H](CCC(=O)O)NC(=O)[C@H](Cc2ccc(-c3ccccc3)cc2)NC1=O [Compound 1226] ({CH2CO}-FYDWL[Bip]E[Dap][dL]NLVSCA-NH2; thioether N-14)
9.4	Cc1cccc(C[C@@H]2NC(=O)[C@H](CC(=O)O)NC(=O)[C@H](Cc3ccc(OCC(=O)O)cc3)NC(=O)[C@H](CN)NC(=O)CSC[C@@H](C(=O)N[C@@H](C)C(=O)N[C@@H](CCC(=O)O)C(N)=O)NC(=O)[C@H]([C@@H](C)O)NC(=O)[C@H](C(C)C)NC(=O)[C@H](CC3CCCCC3)NC(=O)[C@H](CCN)NC(=O)[C@@H](CC(C)C)NC(=O)[C@H](CCCN)NC(=O)[C@H](CCCNC(N)=O)NC(=O)[C@H](Cc3ccc(-c4ccccc4)cc3)NC(=O)[C@H](C(C)C)NC2=O)c1 [Compound 1297] ({CH2CO}-[Dap]Y(Carboxymethyl)D[Phe(3-Me)]V[Bip][Cit][Orn][dL][Dab][Cha]VTCAE-NH2; thioether N-14)
8.5	Cc1cccc(C[C@@H]2NC(=O)[C@H](CC(=O)O)NC(=O)[C@H](Cc3ccc(C(=O)O)cc3)NC(=O)[C@H](Cc3ccc(OCC(=O)O)cc3)NC(=O)CSC[C@@H](C(=O)N[C@@H](C)C(N)=O)NC(=O)[C@H]([C@@H](C)O)NC(=O)[C@H](C(C)C)NC(=O)[C@H](CC3CCCCC3)NC(=O)[C@H](CCN)NC(=O)[C@@H](CC(C)C)NC(=O)[C@H](CCCN)NC(=O)[C@H](CN)NC(=O)[C@H](Cc3ccc(-c4ccccc4)cc3)NC(=O)[C@H](C(C)C)NC2=O)c1 [Compound 1416]
